How the values of series [1] were obtained: FIGS. 30-32 illustrate different transdermal membrane materials being tested with different solvents and solvent compositions. Solutions of water and different alcohols, including isopropanol, ethanol, and methanol were tested. The water to alcohol content was varied between 0/100 and 100/0 (by v/v) and tested with different membrane materials. For the tests 1.6 mL of solution was injected into the area between the transdermal membrane and the vapor permeable membrane. […] The membranes were observed approximately 90 seconds after providing the solvent solution to the space between the transdermal membrane and the vapor permeable membrane. […] Three different transdermal membrane materials were tested including Celgard® 2400 (FIG. 30), Celgard® 2500 (FIG. 31), and Celgard® 3501 (FIG. 32). Celgard® 2400 has an average pore diameter of about 0.041 μm and a porosity of 41%. Celgard® 2500 has an average pore diameter of about 0.064 μm and a porosity of 55%. Celgard® 3501 has an average pore diameter of about 0.064 μm and a porosity of 55%.

Series [2] in a line: Wetting and permeation of solvent solutions across the transdermal membrane (FIG. 31). Format: physicochemical. As to conditions: Celgard® 2500; 1.6 mL of solution injected between transdermal membrane and vapor permeable membrane; observed approximately 90 seconds after; v/v.

Where two headings read alike, the source gives them in different places.

This note sets out measurements from US12011560B2, “Drug delivery methods and systems” (Morningside Venture Investments Limited, priority 2015, dated 2024).

Turning to `CO` [100% methanol, methanol], the “permeation of the solvent solution across the membrane” value in series [1] and in series [2] was “Some permeation” in each case.
For `O` [100% water, water], the “permeation of the solvent solution across the membrane” value in series [1] is recorded as “no permeation”.
